Structures are written as SMILES.

One experiment relates to LTD4 receptor. As to the kind of experiment: Inhibition of LTD4-induced IP3 formation in mesangial cells. Type of experiment: cell-based, rat. As for the experimental part:
Mesangial Cell Culture: Rat mesangial cells were isolated and cultured as described previously (Harris, R. C., et al., J. Clin. Invest. 82:1028-1039(1988). Briefly, kidneys were exicesed from two young Sprague-Dawly rats under sterile conditions, and the cortices removed, minced, and washed several times in Hank's Balanced Salt Solution, containing 10 mM HEPES pH 7.4, amphotericin (0.25 μg/ml), and gentamicin (50 μg/ml). The tissue was then passed through consecutive sterilized stainless mesh filters with pore sizes of 212 μm, 150 μm, and then onto the final mesh of 75 μm. The isolated glomeruli were harvested from the surface of the 75 μm. The isolated glomeruli were harvested from the surface of the 75 μm filter and washed twisce with the Hank's Media. The glomeruli were suspended in RPMI 1640 Medium with 15% Fetal Bovine Serum (Givco), penicillin (100 μ/ml) and streptomycin (100 μg/ml) (Gibco), plated into 100 mm cell culture petri dishes, and incubated at 37° C. in a humidified atmosphere of 95% air and […] 5% CO2. Mesangial cell colonies were subcultured in 60 mm culture dishes, and experiments were carried out in cells from passages 2 to 12. The criteria used to establish the identify of mesangial cells were as described previously (Harris, R. C., et al., J. Clin. Invest. 82:1028-1039 (1988)). Cells were routinely grown in RPMI-1640, supplemented with 20% fetal calf serum, penicillin 100 μ/ml, and streptomycin 100 μg/ml. […] All eicosanoids were stored under argon at -70° C. in methanol and their purity and quantity verified periodically by ultraviolet scanning and high pressure liquid chromatography (Serhan, C. N. et al., J. Biol. Chem. 261:16340 (1986)).
(§1) To label mesangial cells with [^3 H]-Inositol, cells grown to confluence in 60 mm culture dishes (10^6 cells/dish) were cultured in RPMI, supplemented with 10% dialyzed fetal calf serum and [^3 H]-inositol (1 μCi/ml) in a total incubation volume of 5 ml.
Reactions were terminated by the addition of cold 10% trichloroacetic acid (TCA), the supernatants subjected to ether extraction, and the aqueous phase titrated to neutral pH using 0.1 M Tris base. [^3 H]-IP1, [^3 H]-IP2, and [^3 H]-IP3 in the aqueous phase were separated and quantitated by anion exchange column chromatography, using the method of Berridge et al. (Berridge, M. J., Biochem. J. 220:345-360 (1984)). To ensure the reliability of the separation technique, the same methods for extraction and separation were applied to known amounts of [^3 H]-IP1, [^3 H]IP2, and [^3 H]-IP3 standards (New England Nuclear) mixed in a ratio of 3:2:1, respectively, and subjected to separation by HPLC. The latter was performed using established methodology described previously (Cunha-Melo, J. R., et al., J. Biol. Chem. 262:11455-11463 (1987)).

In experiment [1] the target is T1, mesangial cell LTD4 receptor (Rattus norvegicus, UniProt Q924T8).
T1 sequence (Q924T8 1-339): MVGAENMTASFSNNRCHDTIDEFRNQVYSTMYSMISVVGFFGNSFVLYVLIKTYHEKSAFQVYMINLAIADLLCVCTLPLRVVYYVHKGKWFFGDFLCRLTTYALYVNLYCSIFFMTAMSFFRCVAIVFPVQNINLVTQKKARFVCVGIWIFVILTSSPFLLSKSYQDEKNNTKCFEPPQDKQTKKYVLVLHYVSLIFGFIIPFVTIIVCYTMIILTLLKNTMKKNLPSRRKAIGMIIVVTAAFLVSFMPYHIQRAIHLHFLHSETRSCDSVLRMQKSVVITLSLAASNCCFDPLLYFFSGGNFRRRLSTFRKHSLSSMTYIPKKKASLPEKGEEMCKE
The settings on record: 10 nM [3H]-LTD4.
Description: (§2) Mesangial Cell Culture: Rat mesangial cells were isolated and cultured as described previously (Harris, R. C., et al., J. Clin. Invest. 82:1028-1039(1988). Briefly, kidneys were exicesed from two young Sprague-Dawly rats under sterile conditions, and the cortices removed, minced, and washed several times in Hank's Balanced Salt Solution, containing 10 mM HEPES pH 7.4, amphotericin (0.25 μg/ml), and gentamicin (50 μg/ml). The tissue was then passed through consecutive sterilized stainless mesh filters with pore sizes of 212 μm, 150 μm, and then onto the final mesh of 75 μm. The isolated glomeruli were harvested from the surface of the 75 μm. The isolated glomeruli were harvested from the surface of the 75 μm filter and washed twisce with the Hank's Media. The glomeruli were suspended in RPMI 1640 Medium with 15% Fetal Bovine Serum (Givco), penicillin (100 μ/ml) and streptomycin (100 μg/ml) (Gibco), plated into 100 mm cell culture petri dishes, and incubated at 37° C. in a humidified atmosphere of 95% air and 5% air and 5% CO2. Mesangial cell colonies were subcultured in 60 mm culture dishes, and experiments were carried out in cells from passages 2 to 12. […] Cells were routinely grown in RPMI-1640, supplemented with 20% fetal calf serum, penicillin 100 μ/ml, and streptomycin 100 μg/ml.
(§3) Binding studies were routinely performed at 4° C. […] The cells were then dissolved with 1.0 ml of 1.0 N NaOH, neutralized with HCl, dissolved in 10 ml of Aquasol (New England Nuclear, Boston, MA), and the bound radioactivity was determined using a scintillation counter (Beckman Instruments). […] Cell density was determined by counting cells from replicate wells, using a Coulter Counter ZBi (Coulter Electronics, Inc., Hialeah, Fla.).

In another experiment the test system is neutrophils. The conditions noted are these: cited from earlier work.
A further experiment deals with vascular smooth muscle. The settings on record: cited from earlier work.
The subject of another experiment is guinea pig lung. The conditions noted are these: cited from earlier work.
Experiment [2] deals with T1, mesangial cell LTD4 receptor. The experiment in a line: biochemical.
Description: as §2, §3
In another experiment the test system is rat mesangial cells. The experiment in a line: IP3 formation ([3H]-inositol labeled mesangial cells) in response to LTD4 or LXA4. The settings on record: Mesangial cell, 5 s. Format: cell-based.
Source text: Statistical: ANOVA with Bonferroni modification for multiple pre-planned comparisons was used, within each group and between groups, to compare the changes in various whole kidney and microcirculatory indices which occurred from one period to another. In phosphoinositide generation studies, increases in [^3 H]-IP3 CPMs in agonist-treated cells were compared to vehicle-treated controls using upaired students t-test. Differences were considered significant at a p value ≤0.05. All values are reported as means ± SEM.
The isolated glomeruli were harvested from the surface of the 75 μm filter and washed twisce with the Hank's Media. […] Mesangial cell colonies were subcultured in 60 mm culture dishes, and experiments were carried out in cells from passages 2 to 12.
as §1
Reactions were terminated by the addition of cold 10% trichloroacetic acid (TCA), the supernatants subjected to ether extraction, and the aqueous phase titrated to neutral pH using 0.1 M Tris base. […] To ensure the reliability of the separation technique, the same methods for extraction and separation were applied to known amounts of [^3 H]-IP1, [^3 H]IP2, and [^3 H]-IP3 standards (New England Nuclear) mixed in a ratio of 3:2:1, respectively, and subjected to separation by HPLC.

Another experiment relates to renal arterioles. The conditions noted are these: renal artery, anesthetized rats; cited from earlier work.

Consider `CCCCC[C@H](O)/C=C/C=C\C=C\C=C\[C@@H](O)[C@@H](O)CCCC(=O)O` [LXA4, (5S,6R,15S)-5,6,15-trihydroxy-7,9,13-trans-11-cis-eicosatetraenoic acid], for which, in the experiment with LTD4 receptor (pre-incubation with 100 nM LXA4 for 10 min, then 10 nM LTD4 (n=3)), the “Inhibition of LTD4-induced IP3 generation” value was “completely prevented”. In addition, the “Inhibition of LTD4-induced stimulation of IP3 formation (FIG. 2)” value with LTD4 receptor (preexposure to 100 nM LXA4 for 10 minutes) was “abrogation”. Further, in experiment [1], the “Competition for [3H]-LTD4 binding compared with LTB4” value was “several-fold greater than that of the non-peptidoleukotriene, LTB4” and the “Competition for [3H]-LTD4 binding compared with LTE4” value is listed as “equipotent to that of LTE4”. Further, the “Neutrophil superoxide generation, elastase release and leukocyte chemotaxis” value in the experiment with neutrophils was “induce neutrophils to generate superoxide radicals, release elastase, and promote chemotaxis by leukocytes”. Also, the “Concentration that relaxes (dilates) vascular smooth muscle” value in the experiment on vascular smooth muscle is listed as “less than 1 μM”. The “Contraction of pulmonary smooth muscle” value in the experiment with guinea pig lung is “contract pulmonary smooth muscle”. For the same compound, inhibition in experiment [2] was half-maximal at 100 nM (IC50). For the same compound, the activation at 0.001 µM in the experiment on rat mesangial cells (1 nM, 5 sec, n=3, p<0.05, read-out: increase in [3H]-IP3 counts over controls) turned out to be 46 ± 14%. Besides, the activation at 0.01 µM in the experiment with rat mesangial cells (10 nM LXA4, 5 sec, n=6, p<0.05, read-out: increase in [3H]-IP3 counts over controls) came to 50 ± 21%. In addition, the activation at 0.05 µM in the experiment on rat mesangial cells (50 nM LXA4, 5 sec, n=3, p<0.05, read-out: increase in [3H]-IP3 counts over controls) was 44 ± 22%. The activation at 0.1 µM with rat mesangial cells (100 nM, 5 sec, n=5, p<0.05, read-out: increase in [3H]-IP3 counts over controls) was determined as 45 ± 26%. In the experiment with renal arterioles, the “Glomerular capillary ultrafiltration coefficient (Kf)” value is “reduces” and the Renal arteriole response result was “elicits vasodilator responses”.

The record behind these values is patent US5079261A, “Use of lipoxin A4 and its derivatives as antagonists for slow-reacting substances of anaphylaxis” (Brigham and Women's Hospital, priority 1989, dated 1992).
